Data as given in article PMC6273328, “Simultaneous Determination of Purpurin, Munjistin and Mollugin in Rat Plasma by Ultra High Performance Liquid Chromatography-Tandem Mass Spectrometry: Application to a Pharmacokinetic Study after Oral Administration of Rubia cordifolia L. Extract” (Molecules, 2016).
Where two headings read alike, the source gives them in different places.

Key:
[1] = Pharmacokinetic study in rats after oral administration of R. cordifolia extract (UHPLC-MS/MS of plasma); assay type: in vivo, Sprague-Dawley (SD) rats; details: male, Sprague-Dawley
Experimental: The UHPLC-MS/MS method described herein was applied to investigate the pharmacokinetics of the three constituents in R. cordifolia after a single oral administration of 0.82 g/kg of extract (equivalent to 6.3 μg/g for mollugin, 1.3 μg/g for munjistin, and 0.68 μg/g for purpurin) to twelve rats. We determined the oral dosage for the rats corresponding to the human dosage recommended in the Chinese Pharmacopoeia (2015 edition). The human dosage of R. cordifolia in the Chinese Pharmacopoeia is 10 g/day, so we calculated the final oral dosage as 0.82 g/kg in rats based on the Meeh-Rubn method.
Twelve male Sprague-Dawley (SD) rats (body weight 220 ± 20 g) were obtained from the experimental animal center of Harbin Medical University and adapted to a constant-temperature (25 °C) room. The animal handling procedures were approved by the institutional ethics committee and conformed to the principles of the International Guide for the Care and Use of Laboratory Animals. Before the experiment, the rats were fasted for 12 h and had access to water during the research period. Blood (0.4 mL) was collected from the orbital venous plexus at several specific time points (0, 0.33, 0.67, 1, 1.3, 1.67, 2, 2.5, 3, 4, 6, 8, 12 and 24 h) after the oral administration of R. cordifolia (0.82 g/kg). After centrifugation at 12000 rpm for 5 min, the plasma was collected immediately and stored at −20 °C until sample analysis.
Before the experiment, the plasma samples were thawed naturally at room temperature. As a liquid-liquid extraction method, 100 μL of methanol and 50 μL of I.S. (2000 ng/mL) were added to a rat plasma sample (100 μL), and then the content was mixed by a vortex mixer for 30 s. After this step, a 3 mL aliquot of ethyl acetate (extraction agent) was accurately added and the mixture vortexed for 60 s. Then the samples were put into a centrifuge. The organic supernatant was pipetted into clean glass tubes individually after centrifugation 4000 rpm for 5 min. The upper organic layer was removed and evaporated to dryness at 40 °C under a stream of nitrogen. The residue was then reconstituted with 100 μL of mobile phase (5 mM ammonium acetate in water/methanol, 10:90, v/v), vortexed for 30 s and filtered by a 0.22 μm membrane. A 5 μL aliquot of the solution was injected into the UHPLC-MS/MS system for analysis.
Noncompartmental methods were applied to calculate the following pharmacokinetic parameters. The peak plasma concentration (Cmax) and the time of maximum plasma concentration (Tmax) were observed directly from the measured data. The elimination rate constant (Ke) was calculated using the linear regression of the terminal points in a semi-log plot of the plasma concentration against time. The elimination half-life (t1/2) was calculated using the formula: t1/2 = 0.693/Ke
The area under the peak plasma concentration-time curve (AUC0→t) to the last measurable plasma concentration (Ct) was estimated using the linear trapezoidal rule. The area under the plasma concentration-time curve to time infinity (AUC0→∞) was calculated as following: AUC0→∞ = AUC0-t + Ct/Ke

[2] = Stability of the analytes in rat plasma (QC samples); assay type: in vitro ADME; details: n = 6; for Stability (% RE) Post-Preparative: extracted plasma samples, 12 h at 4 °C after preparation; for Stability (% RE) Short-Term / Stability (% RE) Long-Term / Stability (% RE) Three Freeze-Thaw: rat plasma; for Stability (% RE) Short-Term: 4 h at ambient temperature; for Stability (% RE) Long-Term: storage for 2 weeks at −20 °C; for Stability (% RE) Three Freeze-Thaw: three freeze (−20 °C) and thaw cycles
Experimental: To study the stability, QC samples of the three analytes at three QC levels (LQC, MQC, and HQC) were added into drug-free plasma samples and each levels contained six replicates. Four different manipulations were designed to assess the stability involving short-term stability (storage for 4 h at ambient temperature), long-term stability (storage for 2 weeks at −20 °C), freeze-thaw stability (three freeze at −20 °C and thaw cycles), and post-preparative stability (storage for 12 h after sample preparation at 4 °C). A series of concentrations of stability testing QC samples was obtained by the calibration curve which was established from freshly prepared standard samples.

[3] = medium QC (26.4/51.5/245 ng/mL)
[4] = high QC (211/412/1960 ng/mL purpurin/munjistin/mollugin)
[5] = low QC (0.528/1.03/4.90 ng/mL purpurin/munjistin/mollugin)
[6] = medium QC (26.4/51.5/245 ng/mL purpurin/munjistin/mollugin)

AUC(0-inf) ([1]; rat, in vivo, po, 0.82 g/kg) [ng·h/mL]	AUC(0-t) ([1]; rat, in vivo, po, 0.82 g/kg) [ng·h/mL]	Cmax ([1]; rat, in vivo, po, 0.82 g/kg) [ng/mL]	Tmax ([1]; rat, in vivo, po, 0.82 g/kg) [h]	half-life ([1]; rat, in vivo, po, 0.82 g/kg) [h]	Stability (% RE) Post-Preparative ([2]; high QC (211/412/1960 ng/mL)) [% RE]	Stability (% RE) Post-Preparative ([2]; low QC (0.528/1.03/4.90 ng/mL)) [% RE]	Stability (% RE) Post-Preparative [2, 3] [% RE]	Stability (% RE) Short-Term ([2]; high QC (211/412/1960 ng/mL)) [% RE]	Stability (% RE) Short-Term ([2]; low QC (0.528/1.03/4.90 ng/mL)) [% RE]	Stability (% RE) Short-Term [2, 3] [% RE]	Stability (% RE) Long-Term ([2]; high QC (211/412/1960 ng/mL)) [% RE]	Stability (% RE) Long-Term ([2]; low QC (0.528/1.03/4.90 ng/mL)) [% RE]	Stability (% RE) Long-Term [2, 3] [% RE]	Stability (% RE) Three Freeze-Thaw [2, 4] [% RE]	Stability (% RE) Three Freeze-Thaw [2, 5] [% RE]	Stability (% RE) Three Freeze-Thaw [2, 6] [% RE]	Compound	other results
243 ± 35.9	206 ± 36.1	70.1 ± 11.8	1.61 ± 0.24	9.52 ± 2.68	13.68	−14.02	−2.00	14.76	−13.38	−5.35	12.08	−2.59	−2.68	14.76	1.92	−5.35	O=C1c2ccccc2C(=O)c2c(O)c(O)cc(O)c21 [Purpurin, purpurin]	–
–	–	–	–	–	14.38	11.15	0.65	−8.69	9.90	−4.35	−8.55	4.57	−0.17	−13.17	10.26	8.78	COC(=O)c1c2c(c3ccccc3c1O)OC(C)(C)C=C2 [Mollugin, mollugin]	half-life ([1]; rat plasma, single oral 0.82 g/kg R. cordifolia extract, mean ± SD, n = 12, non-compartment model, read-out: t1/2 (converted)): 9.02 ± 2.14 h; AUC(0-t) ([1]; rat plasma, single oral 0.82 g/kg R. cordifolia extract, mean ± SD, n = 12, read-out: AUC0→t): 232 ± 57.6 ng·h/mL; AUC(0-inf) ([1]; rat plasma, single oral 0.82 g/kg R. cordifolia extract, mean ± SD, n = 12, read-out: AUC0→∞): 296 ± 40.9 ng·h/mL; Cmax ([1]; rat plasma, single oral 0.82 g/kg R. cordifolia extract, mean ± SD, n = 12, read-out: Cmax): 52.1 ± 6.71 ng/mL; Tmax ([1]; rat plasma, single oral 0.82 g/kg R. cordifolia extract, mean ± SD, n = 12, read-out: Tmax): 1.99 ± 0.21 h
136 ± 21.2	110 ± 20.1	26.1 ± 6.59	2.58 ± 0.19	9.22 ± 2.75	−10.15	11.15	7.04	7.31	11.56	6.73	−0.77	13.97	5.56	−2.82	9.04	9.46	O=C1c2ccccc2C(=O)c2c1cc(O)c(C(=O)O)c2O [Munjistin, munjistin]	–
